Paper PMC9104438, “Application of a Fluorescence Anisotropy-Based Assay to Quantify Transglutaminase 2 Activity in Cell Lysates” (International Journal of Molecular Sciences, 2022)

Tests used:
Test in all cases: FA-based assay, characterization of irreversible inhibitors
hTGase 1 = molecular target: T1, hTGase 1 (Homo sapiens, UniProt P22735)
T1 sequence (P22735 1-817): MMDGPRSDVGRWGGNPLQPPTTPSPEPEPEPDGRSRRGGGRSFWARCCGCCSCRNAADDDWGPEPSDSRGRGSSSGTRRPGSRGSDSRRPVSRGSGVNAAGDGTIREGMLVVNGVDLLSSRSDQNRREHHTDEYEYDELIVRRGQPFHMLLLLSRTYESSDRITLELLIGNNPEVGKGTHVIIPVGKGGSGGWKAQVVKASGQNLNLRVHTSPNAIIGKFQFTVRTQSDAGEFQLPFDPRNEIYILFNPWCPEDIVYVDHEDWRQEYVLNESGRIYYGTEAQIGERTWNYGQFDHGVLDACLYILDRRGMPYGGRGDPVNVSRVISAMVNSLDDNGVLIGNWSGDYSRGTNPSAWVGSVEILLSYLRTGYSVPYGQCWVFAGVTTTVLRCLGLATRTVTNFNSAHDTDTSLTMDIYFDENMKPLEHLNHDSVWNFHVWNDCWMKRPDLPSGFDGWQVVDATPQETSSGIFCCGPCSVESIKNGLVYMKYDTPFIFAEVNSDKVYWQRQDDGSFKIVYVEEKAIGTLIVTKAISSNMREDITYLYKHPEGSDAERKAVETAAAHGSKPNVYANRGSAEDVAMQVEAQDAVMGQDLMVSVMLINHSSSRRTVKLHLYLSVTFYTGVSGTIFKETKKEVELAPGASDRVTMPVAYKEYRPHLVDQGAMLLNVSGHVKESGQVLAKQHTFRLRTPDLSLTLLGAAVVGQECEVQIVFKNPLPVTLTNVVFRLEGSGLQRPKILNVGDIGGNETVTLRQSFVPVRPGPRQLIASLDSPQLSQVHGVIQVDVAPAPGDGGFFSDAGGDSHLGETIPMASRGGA

hTGase 3 = molecular target: T2, hTGase 3 (Homo sapiens, UniProt Q08188)
T2 sequence (Q08188 2-467 limits assumed): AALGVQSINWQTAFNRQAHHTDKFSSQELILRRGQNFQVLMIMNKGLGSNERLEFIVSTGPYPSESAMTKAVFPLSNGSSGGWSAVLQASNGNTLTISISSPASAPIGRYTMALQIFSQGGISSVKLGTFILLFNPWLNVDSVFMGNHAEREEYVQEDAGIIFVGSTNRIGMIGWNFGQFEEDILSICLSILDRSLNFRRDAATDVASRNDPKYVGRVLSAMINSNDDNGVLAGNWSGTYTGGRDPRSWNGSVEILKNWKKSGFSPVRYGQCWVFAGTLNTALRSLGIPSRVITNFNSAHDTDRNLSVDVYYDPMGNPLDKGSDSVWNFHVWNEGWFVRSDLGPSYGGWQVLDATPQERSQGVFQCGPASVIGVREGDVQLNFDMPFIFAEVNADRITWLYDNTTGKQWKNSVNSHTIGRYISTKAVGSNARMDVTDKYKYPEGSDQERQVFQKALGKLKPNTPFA
T2 sequence (Q08188 468-693 partner limits assumed): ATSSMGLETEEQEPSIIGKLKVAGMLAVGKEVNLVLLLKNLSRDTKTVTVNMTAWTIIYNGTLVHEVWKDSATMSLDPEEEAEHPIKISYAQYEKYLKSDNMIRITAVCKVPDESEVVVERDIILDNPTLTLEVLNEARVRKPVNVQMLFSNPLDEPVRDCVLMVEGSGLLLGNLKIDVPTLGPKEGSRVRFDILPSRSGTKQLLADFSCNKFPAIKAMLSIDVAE

hTGase 6 = molecular target: T3, hTGase 6 (Homo sapiens, UniProt O95932)
T3 sequence (O95932 1-706): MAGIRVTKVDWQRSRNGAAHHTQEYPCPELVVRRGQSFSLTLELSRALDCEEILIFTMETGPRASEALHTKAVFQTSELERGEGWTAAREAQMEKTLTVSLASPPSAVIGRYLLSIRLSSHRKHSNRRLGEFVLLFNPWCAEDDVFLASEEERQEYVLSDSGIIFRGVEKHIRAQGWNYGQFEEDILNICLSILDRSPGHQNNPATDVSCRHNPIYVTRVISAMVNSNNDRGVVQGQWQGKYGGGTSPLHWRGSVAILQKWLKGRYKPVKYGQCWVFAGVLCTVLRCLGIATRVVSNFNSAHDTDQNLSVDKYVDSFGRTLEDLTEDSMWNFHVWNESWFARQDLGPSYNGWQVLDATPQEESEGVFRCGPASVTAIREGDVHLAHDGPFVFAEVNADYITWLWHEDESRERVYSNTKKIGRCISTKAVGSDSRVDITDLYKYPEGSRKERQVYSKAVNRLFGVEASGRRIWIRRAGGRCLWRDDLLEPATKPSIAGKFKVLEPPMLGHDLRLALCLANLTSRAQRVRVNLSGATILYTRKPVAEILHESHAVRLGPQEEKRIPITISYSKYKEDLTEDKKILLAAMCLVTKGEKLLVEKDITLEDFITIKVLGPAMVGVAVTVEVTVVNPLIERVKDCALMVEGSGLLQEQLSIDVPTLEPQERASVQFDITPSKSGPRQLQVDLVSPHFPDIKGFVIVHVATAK

hFXIIIa = molecular target: T4, hFXIIIa (Homo sapiens, UniProt P00488)
T4 sequence (P00488 39-732 limits assumed): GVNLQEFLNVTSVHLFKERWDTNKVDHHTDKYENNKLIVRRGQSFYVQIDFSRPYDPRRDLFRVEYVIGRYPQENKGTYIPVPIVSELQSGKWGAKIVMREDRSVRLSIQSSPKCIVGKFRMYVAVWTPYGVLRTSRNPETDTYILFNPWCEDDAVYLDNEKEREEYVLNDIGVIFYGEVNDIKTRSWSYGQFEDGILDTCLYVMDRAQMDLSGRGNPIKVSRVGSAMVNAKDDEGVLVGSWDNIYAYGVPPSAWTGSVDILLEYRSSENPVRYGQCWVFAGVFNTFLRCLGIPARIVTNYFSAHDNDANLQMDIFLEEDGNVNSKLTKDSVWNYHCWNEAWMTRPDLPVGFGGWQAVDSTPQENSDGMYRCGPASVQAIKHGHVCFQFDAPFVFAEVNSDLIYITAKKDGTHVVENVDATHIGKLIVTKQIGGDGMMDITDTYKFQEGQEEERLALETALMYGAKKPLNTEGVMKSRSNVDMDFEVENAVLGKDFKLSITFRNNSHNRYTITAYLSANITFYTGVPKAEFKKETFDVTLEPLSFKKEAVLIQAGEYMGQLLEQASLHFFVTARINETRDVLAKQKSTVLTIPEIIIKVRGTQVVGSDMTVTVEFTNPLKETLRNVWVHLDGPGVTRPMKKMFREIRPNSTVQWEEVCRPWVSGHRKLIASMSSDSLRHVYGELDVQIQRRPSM

Row | SMILES | IC50 (hTGase 1) [µM] | IC50 (hTGase 3) [µM] | IC50 (hTGase 6) [µM] | IC50 (hFXIIIa) [µM]
1 | C=CC(=O)NCCCC[C@H](NC(=O)Cc1ccccc1)C(=O)N1CCN(c2cccc(-c3cn(CCOCCOCCOCCNC(=O)CCCC[C@@H]4SC[C@@H]5NC(=O)N[C@@H]54)nn3)n2)CC1 [Compound 4, N-(2-(2-(2-(2-(4-(6-(4-(N^6-acryloyl-N^2-(2-phenylacetyl)-L-lysyl)piperazin-1-yl)pyridin-2-yl)-1H-1,2,3-triazol-1-yl)ethoxy)ethoxy)ethoxy)ethyl)-5-((3aS,4S,6aR)-2-oxohexahydro-1H-thieno[3,4-d]imidazol-4-yl)pentanamide] | 4.56 | > 100 | 21.8 | 7.12
2 | C=CC(=O)NCCCC[C@H](NC(=O)Cc1ccccc1)C(=O)N1CCN(c2ccc([N+](=O)[O-])nc2)CC1 [Compound 2] | 8.99 | 32.8 | 19.5 | 17.6
3 | C=CC(=O)NCCCC[C@H](NC(=O)Cc1ccccc1)C(=O)N1CCN(c2cccc(C)n2)CC1 [Compound 1] | > 30 | > 30 | > 30 | > 30
4 | C#Cc1cccc(N2CCN(C(=O)[C@H](CCCCNC(=O)C=C)NC(=O)Cc3ccccc3)CC2)n1 [Compound 3, N^α-Phenylacetyl-N^ε-acryloyl-L-lysine-4-(6-ethinylpyridin-2-yl)piperazide] | 10.2 | > 100 | 38.4 | 26.2
